Values joined by “and” are separate entries in the source; they are usually repeats but may differ in a detail not shown here. Equal entries are not always repeated.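 Step 1: Grow cells in 96-well plates. Step 2: Expose to compound for 48 hours at 5 concentrations. Step 3: Interpolate endpoints linearly; if unreached, use highest concentration. GI50 marks 50% less growth. TGI denotes the concentration required for complete inhibition of growth.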
Columns and labels:
Experiment in all cases: NCI tumour cell line growth inhibition, 48 h
CAKI-1 renal = system: CAKI-1 renal
HCT-116 colon = system: HCT-116 colon
HCT-15 colon = system: HCT-15 colon
HOP-92 NSCLC = system: HOP-92 NSCLC
KM12 colon = system: KM12 colon
LOX IMVI melanoma = system: LOX IMVI melanoma
NCI/ADR-RES ovarian = system: NCI/ADR-RES ovarian
OVCAR-5 ovarian = system: OVCAR-5 ovarian
SF-539 CNS = system: SF-539 CNS
SN12C renal = system: SN12C renal

Row | SMILES | GI50 (CAKI-1 renal) | TGI (CAKI-1 renal) | GI50 (HCT-116 colon) | TGI (HCT-116 colon) | GI50 (HCT-15 colon) [µM] | TGI (HCT-15 colon) | GI50 (HOP-92 NSCLC) | TGI (HOP-92 NSCLC) | GI50 (KM12 colon) | TGI (KM12 colon) | GI50 (LOX IMVI melanoma) [µM] | TGI (LOX IMVI melanoma) | GI50 (NCI/ADR-RES ovarian) | TGI (NCI/ADR-RES ovarian) | GI50 (OVCAR-5 ovarian) | TGI (OVCAR-5 ovarian) | GI50 (SF-539 CNS) | TGI (SF-539 CNS) | GI50 (SN12C renal) [µM] | TGI (SN12C renal)
1 | Oc1c(I)cc(-c2nc3ccccc3s2)cc1CN(Cc1ccccn1)Cc1ccccn1 | 0.413 µM | 2.47 µM | 0.494 µM | 12.4 µM | 0.379 | > 100 µM | 0.273 µM | 5.45 µM | 0.4 µM | 17.4 µM | 0.305 | 1.38 µM | 0.411 µM | 2.93 µM | 0.928 µM | 53.2 µM | 0.246 µM | 0.903 µM | 0.446 | 11.6 µM
2 | COc1ccc(CC(NC(=O)[C@H](C)NC(=O)CN2CCOCC2)C(=O)N[C@@H](Cc2ccccc2)C(=O)[C@@]2(C)CO2)cc1 (some centres undefined) | 4.29 µM | > 57.8 µM | 0.181 µM | 0.49 µM | 5.64 | 76.3 µM | 0.227 µM | 0.758 µM | 0.162 µM | 0.338 µM | 0.148 | 0.379 µM | 19.8 µM | > 100 µM | 0.272 µM | 1.19 µM | 0.221 µM | 0.591 µM | 0.263 | 1.53 µM
3 | COc1cc2cc(Oc3ccc(NC(=O)Nc4ccc(Cl)c(C(F)(F)F)c4)cc3)c(C)nc2cc1OC | 0.782 µM | 2.54 µM | 0.994 µM | 3.84 µM | 1.15 | 4.86 µM | 0.682 µM | 2.05 µM | 1.07 µM | 3.85 µM | 1.22 | 4.16 µM | 1.06 µM | 4.91 µM | 1.93 µM | 6.22 µM | 1.96 µM | 8.39 µM | 1.31 | 6.12 µM
4 | C[C@@H](Oc1ccc2[nH]nc(/C=C/c3cnn(CCO)c3)c2c1)c1c(Cl)cncc1Cl | 0.184 µM | > 100 µM | 0.082 µM | > 100 µM | 0.197 | 8.38 µM | 0.0168 µM | 0.0987 µM | < 0.01 µM | 5.87 µM | 0.0593 | 0.281 µM | 0.697 µM | 3.81 µM | 0.166 µM | 2.29 µM | 0.035 µM | 0.268 µM | 0.121 | > 100 µM
5 | O=C1C(=O)c2ccccc2C(O)=C1CC=C(Cl)Cl | 7.47 µM and 7.14 µM | 65.6 µM and 136 µM and > 100 µM | 1.15 µM and 2.96 µM | 29.7 µM and 44 µM and > 100 µM | 0.424 | 51.7 µM and 159 µM and > 100 µM | 14.2 µM and 11.8 µM | 50.8 µM and 122 µM and 47.3 µM | 11.7 µM and 5.17 µM | > 82.8 µM and 161 µM and > 100 µM | 2.68 | 30.7 µM and 51.9 µM and > 100 µM | 5.15 µM and 6.97 µM | 56 µM and 174 µM and > 100 µM | 17.2 µM and 28.3 µM | 195 µM and > 100 µM | 2.45 µM and 3.72 µM | 54.3 µM and 107 µM and > 100 µM | 5.92 | > 86.9 µM and 137 µM and > 100 µM
6 | [C-]#[N+][C@]12C(=O)[C@H](CCC1(C)C)C(C)(C)[C@H]1C(=O)N(C)c3cccc2c31 | 51.7 µM | > 100 µM | 3.73 µM | > 100 µM | 58.5 | > 100 µM | 3.11 µM | > 100 µM | 9.99 µM | > 100 µM | > 100 | > 100 µM | > 100 µM | > 100 µM | > 100 µM | > 100 µM | 61.6 µM | > 100 µM | 41.9 | > 100 µM
7 | CN1CCN(CCNc2ccc(CO)c3sc4ccccc4c(=O)c23)CC1 | – | 19.8 µM | – | 8.24 µM | – | 18 µM | – | 13.2 µM | – | 16.7 µM | 2.59 | 8.27 µM | 2.56 µM | 14.3 µM | – | 21.2 µM | – | 10.7 µM | 3.64 | 15.4 µM
8 | C=CCC(N[C@H](CO)c1ccccc1)c1cn(S(=O)(=O)c2ccc(C)cc2)c2ccccc12 (some centres undefined) | 11.5 µM | 37.3 µM | 17 µM | 31.6 µM | 23.7 | 60.2 µM | 24.9 µM | > 100 µM | 19.8 µM | 68.4 µM | 13.7 | 27 µM | 18.9 µM | 46.2 µM | > 100 µM | > 100 µM | 21.4 µM | 38.2 µM | 16.9 | 32.2 µM
9 | O=C(O)c1cscc1Cc1cccs1 | – | > 100 µM | – | > 100 µM | – | > 100 µM | – | > 100 µM | – | > 100 µM | – | > 100 µM | – | > 100 µM | – | > 100 µM | – | > 100 µM | – | > 100 µM
10 | OCC#Cc1ccccc1C#Cc1ccc(C#Cc2ccccc2C#CCO)s1 | 12.1 µM | 25.1 µM | 24.2 µM | 50.1 µM | 25.3 | 91.1 µM | 15.6 µM | 29.7 µM | 15.1 µM | 30.6 µM | 20.4 | 53.6 µM | 21.1 µM | 36 µM | 22.1 µM | 46.5 µM | 18.1 µM | 34.2 µM | 20.1 | 43 µM
11 | CNC(=O)OC1C(O[C@H]2C[C@H]3[C@@H]4CC=C5C[C@@H](O)CC[C@]5(C)[C@H]4CC[C@]3(C)[C@H]2[C@H](C)C(=O)CCC(C)C)OCC(O)C1OC1OCC(O)C(O)C1OC(=O)c1ccc(OC)cc1 (some centres undefined) | 0.0676 µM | 1.04 µM | 0.0129 µM | 3.11 µM | 0.677 | 4.01 µM | 0.0209 µM | 3.1 µM | 0.106 µM | 4.97 µM | 0.0106 | 0.0688 µM | 7.1 µM | 27.5 µM | 0.235 µM | 5.01 µM | < 0.00275 µM | 0.0185 µM | 2.64 | 6.83 µM
12 | O=[N+]([O-])/C=C\c1c[nH]c2ccc(OCc3ccccc3)cc12 | – | 53.5 µM | – | 3.27 µM | – | – | – | 19.4 µM | – | 8.86 µM | – | 3.5 µM | – | 50.1 µM | – | 25.6 µM | – | 22.6 µM | – | 10 µM
13 | O=[N+]([O-])c1ccc(/C=C(/c2ccc([N+](=O)[O-])o2)S(=O)(=O)c2ccccc2)o1 | – | 33 µM | – | 3.08 µM | – | 26 µM | – | 27.8 µM | – | 32.6 µM | – | – | – | 39.1 µM | – | 33.9 µM | – | 37.7 µM | – | –
14 | COc1ccc(/C=C(/C)[N+](=O)[O-])cc1 | – | 6.07 µM | – | 3.14 µM | – | 7.36 µM | – | 5.66 µM | – | 3.32 µM | – | – | – | 13.6 µM | – | 9.47 µM | – | 3.68 µM | – | 4.62 µM
